Measured values: patent publication US20070293510A1, “Thiadiazole compounds and use thereof” (Sumitomo Chemical company, Limited ( a Japanese corporation), priority 2002, published 2007)

Tested on: cotton aphids (Aphis gossypii)
Assay: Test Example: cotton aphid control on cucumber plants, spray of diluted formulation
Assay type: in vivo
Conditions: formulation per Formulation Example 5 diluted with water to 500 ppm active ingredient; sprayed 20 ml/cup on cucumber plants with about 20 cotton aphids; counted on the 6th day after application
Procedure: Each formulation of the present compound (1), (3), (4), (6), (7), (8), (12), (13), (14), (15), (16), (17), (18), (19), (20), (21), (22), (23), (24), (25), (26), (28), (30), (31), (33), (34), (35), (36), (37), (38), (42), (43) and (44) obtained according to the Formulation Example 5 was diluted with water so that the active ingredient concentration came to 500 ppm to prepare a diluting liquid. The seeds of cucumber were planted in polyethylene cups and grown until their first foliage leaves developed, on which about 20 cotton aphids (Aphis gossypii) were made parasitic. After one day, the diluting liquid was sprayed at the rate of 20 ml/cup onto the cucumber plants. On the 6th day after the application, the number of cotton aphids was examined. As a result, the numbers of the living cotton aphids were three or less.

SMILES	numbers of the living cotton aphids
CSc1nsc(OCc2ccccc2)n1 [present compound (1), 5-benzyloxy-3-methylthio-1,2,4-thiadiazole]	three or less
CSc1nsc(OCc2cccc(Cl)c2)n1 [present compound (3), 5-(3-chlorobenzyloxy)-3-methylthio-1,2,4-thiadiazole]	three or less
CSc1nsc(OCc2ccc(Cl)cc2)n1 [present compound (4), 5-(4-chlorobenzyloxy)-3-methylthio-1,2,4-thiadiazole]	three or less
CSc1nsc(OCc2cccc(C(F)(F)F)c2)n1 [present compound (6), 5-(3-trifluoromethylbenzyloxy)-3-methylthio-1,2,4-thiadiazole]	three or less
CSc1nsc(OCc2ccc(C(F)(F)F)cc2)n1 [present compound (7), 5-(4-trifluoromethylbenzyloxy)-3-methylthio-1,2,4-thiadiazole]	three or less
CSc1nsc(OCc2ccc(C)cc2)n1 [present compound (8), 5-(4-methylbenzyloxy)-3-methylthio-1,2,4-thiadiazole]	three or less
CSc1nsc(OCc2ccc(F)cc2)n1 [present compound (12), 5-(4-fluorobenzyloxy)-3-methylthio-1,2,4-thiadiazole]	three or less
CSc1nsc(OCc2ccc(Br)cc2)n1 [present compound (13), 5-(4-bromobenzyloxy)-3-methylthio-1,2,4-thiadiazole]	three or less
CSc1nsc(OCc2ccc(I)cc2)n1 [present compound (14), 5-(4-iodobenzyloxy)-3-methylthio-1,2,4-thiadiazole]	three or less
CSc1nsc(OCc2ccc(OC(F)(F)F)cc2)n1 [present compound (15), 5-(4-trifluoromethoxybenzyloxy)-3-methylthio-1,2,4-thiadiazole]	three or less
CSc1nsc(OCc2c(F)cccc2F)n1 [present compound (16), 5-(2,6-difluorobenzyloxy)-3-methylthio-1,2,4-thiadiazole]	three or less
CSc1nsc(OCc2cc(F)cc(F)c2)n1 [present compound (17), 5-(3,5-difluorobenzyloxy)-3-methylthio-1,2,4-thiadiazole]	three or less
CSc1nsc(OCc2ccc(Cl)c(Cl)c2)n1 [present compound (18), 5-(3,4-dichlorobenzyloxy)-3-methylthio-1,2,4-thiadiazole]	three or less
CSc1nsc(OCc2ccccn2)n1 [present compound (19), 5-(2-pyridylmethyloxy)-3-methylthio-1,2,4-thiadiazole]	three or less
CSc1nsc(OCc2ccc(Cl)nc2)n1 [present compound (21), 5-(6-chloro-3-pyridyl)methyloxy-3-methylthio-1,2,4-thiadiazole]	three or less
CSc1nsc(OC(C)c2ccccc2)n1 (centres unmarked) [present compound (22), 5-(1-phenylethoxy)-3-methylthio-1,2,4-thiadiazole]	three or less

SMILES	numbers of the living cotton aphids
CSc1nsc(OCCc2ccccc2)n1 [present compound (23), 5-(2-phenylethoxy)-3-methylthio-1,2,4-thiadiazole]	three or less
CSc1nsc(OCCc2ccccn2)n1 [present compound (24), 5-(2-pyridyl-2-ethyloxy)-3-methylthio-1,2,4-thiadiazole]	three or less
CSc1nsc(OCCCc2ccccc2)n1 [present compound (25), 5-(3-phenylpropyloxy)-3-methylthio-1,2,4-thiadiazole]	three or less
CSc1nsc(OCc2cccc([N+](=O)[O-])c2)n1 [present compound (26), 5-(3-nitrobenzyloxy)-3-methylthio-1,2,4-thiadiazole]	three or less
CSc1nsc(OCc2cc(Cl)cc(Cl)c2)n1 [present compound (28), 5-(3,5-dichlorobenzyloxy)-3-methylthio-1,2,4-thiadiazole]	three or less
C=CCSc1nsc(OCc2ccccc2)n1 [present compound (30), 5-benzyloxy-3-allylthio-1,2,4-thiadiazole]	three or less
c1ccc(COc2nc(SCc3ccccc3)ns2)cc1 [present compound (31), 5-benzyloxy-3-benzylthio-1,2,4-thiadiazole]	three or less
COc1ccc(CSc2nsc(OCc3ccccc3)n2)cc1 [present compound (33), 5-benzyloxy-3-(4-methoxybenzyl)thio-1,2,4-thiadiazole]	three or less
CSc1nsc(OCc2ccncc2)n1 [present compound (34), 5-(4-pyridylmethyloxy)-3-methylthio-1,2,4-thiadiazole]	three or less
CSc1nsc(OCc2cccc(Cl)n2)n1 [present compound (35), 5-(6-chloro-2-pyridylmethyloxy)-3-methylthio-1,2,4-thiadiazole]	three or less
CSc1nsc(OCc2ncccn2)n1 [present compound (36), 5-(2-pyrimidylmethyloxy)-3-methylthio-1,2,4-thiadiazole]	three or less
CSc1nsc(OCc2cncnc2)n1 [present compound (37), 5-(5-pyrimidylmethyloxy)-3-methylthio-1,2,4-thiadiazole]	three or less
c1ccc(CSc2nsc(OCc3cncnc3)n2)cc1 [present compound (38), 5-(5-pyrimidylmethyloxy)-3-benzylthio-1,2,4-thiadiazole]	three or less
CCOCSc1nsc(OCc2ccccc2)n1 [present compound (42), 5-benzylloxy-3-ethoxymethylthio-1,2,4-thiadiazole]	three or less
c1ccc(COCSc2nsc(OCc3ccccc3)n2)cc1 [present compound (43), 5-bezyloxy-3-benzyloxymethylhio-1,2,4-thiadiazole]	three or less
CC(=O)OCSc1nsc(OCc2ccccc2)n1 [present compound (44), 5-bezyloxy-3-acetoxymethylhio-1,2,4-thiadiazole]	three or less
